Reference: patent publication US11147802B2, “Substituted oxadiazole chemical compound and composition containing said chemical compound and use thereof” (Shenzhen TargetRx, Inc., priority 2016, dated 2021)

How the values were obtained:
[1] = Metabolic stability in human liver microsomes; format: in vitro ADME; settings: pH 7.4, 1 μM compound, 0.5 mg/mL protein, 37° C.; for half-life at 1 μM: read-out: Human liver microsomes t1/2
Procedure: (§1) Metabolic Stability Evaluation
(§2) Experiments in microsomes: Human liver microsomes: 0.5 mg/mL, Xenotech; Rat liver microsomes: 0.5 mg/mL, Xenotech; Coenzyme (NADPH/NADH): 1 mM, Sigma Life Science; Magnesium chloride: 5 mM, 100 mM phosphate buffer (pH 7.4).
(§3) Preparation of stock solution: Powder of the example compound was accurately weighed and dissolved in DMSO to 5 mM.
(§4) Preparation of phosphate buffer (100 mM, pH7.4): A pre-formulated 0.5M potassium dihydrogen phosphate (150 mL) was mixed with 0.5M dibasic potassium phosphate (700 mL). The pH of the mixture was adjusted to 7.4 with 0.5M dibasic potassium phosphate solution. The mixture was diluted 5-fold with ultrapure water before use, and magnesium chloride was added to obtain a phosphate buffer (100 mM) containing 100 mM potassium phosphate, 3.3 mM magnesium chloride, pH 7.4.
(§5) A NADPH regeneration system solution (containing 6.5 mM NADP, 16.5 mM G-6-P, 3 U/mL G-6-PD, 3.3 mM magnesium chloride) was prepared and placed on wet ice prior to use.
(§6) Preparation of stop solution: acetonitrile solution containing 50 ng/mL propranolol hydrochloride and 200 ng/mL tolbutamide (internal standard). 25057.5 μL of phosphate buffer (pH 7.4) was taken into a 50 mL centrifuge tube, to which 812.5 μL human liver microsomes were added, and mixed to obtain a liver microsome dilution solution with a protein concentration of 0.625 mg/mL. 25057.5 μL of phosphate buffer (pH 7.4) was taken into a 50 mL centrifuge tube, to which 812.5 μL SD rat liver microsomes were added, and mixed to obtain a liver microsome dilution solution with a protein concentration of 0.625 mg/mL.
(§7) Incubation of the samples: The stock solution of the respective compound was respectively diluted to 0.25 mM with an aqueous solution containing 70% acetonitrile, and used as a working solution, ready for use. 398 μL of the dilution solution of human liver microsomes or rat liver microsome were added to a 96-well incubation plate (N=2), respectively, and 2 μL of 0.25 mM working solution was added and mixed.
(§8) Metabolic stability assay: 300 μL of pre-chilled stop solution was added to each well of a 96-well deep well plate and placed on ice as a stop plate. The 96 well incubation plate and NADPH regeneration system were placed in a 37° C. water bath box, shaken at 100 rpm and pre-incubated for 5 min. 80 μL of incubation solution was taken out from each well of the incubation plate and added to the stop plate, mixed, and replenished with 20 μL of NADPH regeneration system solution as a 0-min sample. 80 μL of NADPH regeneration system solution was added to each well of the incubation plate to start the reaction and start counting. […] Separately, 100 μL of the reaction solution was taken at 10, 30, and 90 min reaction, respectively, added to a stop plate, and vortexed for 3 minutes to terminate the reaction. The stop plate was centrifuged at 5000×g at 4° C. for 4 min. 100 μL of the supernatant was added to a 96-well plate to which 100 μL of distilled water was previously added, mixed, and analyzed by LC-MS/MS.
(§9) Data analysis: The peak areas of the corresponding compound and internal standard were detected by LC-MS/MS system, and the ratio of the peak area of the compound to the internal standard was calculated.

[2] = Metabolic stability in rat liver microsomes; format: in vitro ADME; settings: Sprague-Dawley (SD), pH 7.4, 1 μM compound, 0.5 mg/mL protein, 37° C.; for half-life at 1 μM: read-out: Rat liver microsomes t1/2
Procedure: as §1, §2, §3, §4, §5, §6, §7, §8, §9

microsomal CLint at 1 μM [1]	half-life at 1 μM [1]	microsomal CLint at 1 μM [2]	half-life at 1 μM [2]	Structure (SMILES)
< 9.6 µL/min/mg	> 2.5 h			[2H]c1cc(F)c(Br)c([2H])c1/N=C(/NO)c1nonc1NC([2H])([2H])C([2H])([2H])NS(N)(=O)=O [Compound 57, 4-({2-[(sulfamoyl)amino]-1,1,2,2-d4-ethyl}amino)-N-(2,6-d2-3-bromo-4-fluoro-phenyl)-N′-hydroxy-1,2,5-oxadiazole-3-carboximidamide]
< 9.6 µL/min/mg	> 2.5 h	21.3 µL/min/mg	1.08 h	[2H]c1cc(/N=C(/NO)c2nonc2NCCNS(N)(=O)=O)cc(Br)c1F [Compound 32, 4-({2-[(sulfamoyl)amino]ethyl}amino)-N-(3-bromo-4-fluoro-5-d-phenyl)-N′-hydroxy-1,2,5-oxadiazole-3-carboximidamide]
< 9.6 µL/min/mg	> 2.5 h	18.9 µL/min/mg	1.22 h	[2H]C([2H])(CNS(N)(=O)=O)Nc1nonc1/C(=N\c1ccc(F)c(Br)c1)NO [Compound 11]
< 9.6 µL/min/mg	> 2.5 h	19.2 µL/min/mg	1.2 h	[2H]c1cc(/N=C(/NO)c2nonc2NC([2H])([2H])C([2H])([2H])NS(N)(=O)=O)cc(Br)c1F [Compound 52]
< 9.6 µL/min/mg	> 2.5 h	21 µL/min/mg	1.1 h	[2H]C([2H])(CNc1nonc1/C(=N\c1ccc(F)c(Br)c1)NO)NS(N)(=O)=O [Compound 41, 4-({2-[(sulfamoyl)amino]-2,2-d2-ethyl}amino)-N-(3-bromo-4-fluorophenyl)-N′-hydroxy-1,2,5-oxadiazole-3-carboximidamide]
< 9.6 µL/min/mg	> 2.5 h	19.6 µL/min/mg	1.18 h	[2H]c1cc(F)c(Br)c([2H])c1/N=C(/NO)c1nonc1NCCNS(N)(=O)=O [Compound 22]
< 9.6 µL/min/mg	> 2.5 h	18.5 µL/min/mg	1.25 h	[2H]c1cc(F)c(Br)c([2H])c1/N=C(/NO)c1nonc1NC([2H])([2H])CNS(N)(=O)=O [Compound 81, 4-({2-[(sulfamoyl)amino]-1,1-d2-ethyl}amino)-N-(2,6-d2-3-bromo-4-fluoro-phenyl)-N′-hydroxy-1,2,5-oxadiazole-3-carboximidamide]
< 9.6 µL/min/mg	> 2.5 h	20.5 µL/min/mg	1.13 h	[2H]c1c([2H])c(/N=C(/NO)c2nonc2NC([2H])([2H])C([2H])([2H])NS(N)(=O)=O)c([2H])c(Br)c1F [Compound 71, 4-({2-[(sulfamoyl)amino]-1,1,2,2-d4-ethyl}amino)-N-(2,5,6-d3-3-bromo-4-fluoro-phenyl)-N′-hydroxy-1,2,5-oxadiazole-3-carboximidamide]
< 9.6 µL/min/mg	> 2.5 h	17.5 µL/min/mg	1.32 h	[2H]c1c([2H])c(/N=C(/NO)c2nonc2NCCNS(N)(=O)=O)c([2H])c(Br)c1F [Compound 66]
< 9.6 µL/min/mg	> 2.5 h	22.6 µL/min/mg	1.02 h	[2H]c1c([2H])c(/N=C(/NO)c2nonc2NCC([2H])([2H])NS(N)(=O)=O)c([2H])c(Br)c1F [Compound 76, 4-({2-[(sulfamoyl)amino]-1,1-d2-ethyl}amino)-N-(2,5,6-d3-3-bromo-4-fluoro-phenyl)-N′-hydroxy-1,2,5-oxadiazole-3-carboximidamide]
< 9.6 µL/min/mg	> 2.5 h	18.7 µL/min/mg	1.23 h	[2H]C([2H])(Nc1nonc1/C(=N\c1ccc(F)c(Br)c1)NO)C([2H])([2H])NS(N)(=O)=O [Compound 47, 4-({2-[(sulfamoyl)amino]-1,1,2,2-d4-ethyl}amino)-N-(3-bromo-4-fluorophenyl)-N′-hydroxy-1,2,5-oxadiazole-3-carboximidamide]
9.6 µL/min/mg	2.4 h	20.1 µL/min/mg	1.15 h	NS(=O)(=O)NCCNc1nonc1C(=NO)Nc1ccc(F)c(Br)c1 [Epacadostat, reference compound]
